# Columns and labels:
# Test in all cases: relative viability (nuclei count vs DMSO), 5 days (fraction); higher = more cells survive
# NCI-H2347 = system: NCI-H2347
# Summary of the method: (§1)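 Lung cancer cell lines were pin-tool dosed in 1536-well plates on the day after seeding, with either a lone drug or a fixed anchor-drug dose plus five library-drug doses (not always all listed) in √10 steps. Nuclei were counted on 4× images after 5 days. Relative viability is the ratio of treated-well to vehicle-well nuclei counts, with each value a median of duplicate plates.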
# NCI-H647 = system: NCI-H647
# Summary of the method: as §1
# NCI-H2126 = system: NCI-H2126
# Summary of the method: as §1
# NCI-H1915 = system: NCI-H1915
# Summary of the method: as §1
# 201T = system: 201T
# Summary of the method: as §1
# ChaGo-K-1 = system: ChaGo-K-1
# Summary of the method: as §1
# NCI-H322M = system: NCI-H322M
# Summary of the method: as §1
# RERF-LC-KJ = system: RERF-LC-KJ
# Summary of the method: as §1
# EPLC-272H = system: EPLC-272H
# Summary of the method: as §1
# NCI-H1666 = system: NCI-H1666
# Summary of the method: as §1
# PC-14 = system: PC-14
# Summary of the method: as §1
# LCLC-97TM1 = system: LCLC-97TM1
# Summary of the method: as §1
# HCC-827 = system: HCC-827
# Summary of the method: as §1
# NCI-H23 = system: NCI-H23
# Summary of the method: as §1
# HCC-78 = system: HCC-78
# Summary of the method: as §1
# COR-L 105 = system: COR-L 105
# Summary of the method: as §1
# NCI-H520 = system: NCI-H520
# Summary of the method: as §1
# NCI-H522 = system: NCI-H522
# Summary of the method: as §1
# NCI-H2405 = system: NCI-H2405
# Summary of the method: as §1
# NCI-H2087 = system: NCI-H2087
# Summary of the method: as §1
# LC-2-ad = system: LC-2-ad
# Summary of the method: as §1
# H3255 = system: H3255
# Summary of the method: as §1
# NCI-H661 = system: NCI-H661
# Summary of the method: as §1
# NCI-H650 = system: NCI-H650
# Summary of the method: as §1
smiles,measurement,setting,value
Clc1ccc(Nc2nnc(Cc3ccncc3)c3ccccc23)cc1 [Vatalanib] + Nc1ncn([C@H]2C[C@H](O)[C@@H](CO)O2)c(=O)n1 [Decitabine] (partner 2 µM),relative viability,NCI-H2347; first compound 0.04 µM,0.616
same,relative viability,NCI-H2347; first compound 0.1265 µM,0.62
same,relative viability,NCI-H2347; first compound 0.4 µM,0.624
same,relative viability,NCI-H2347; first compound 1.265 µM,0.602
same,relative viability,NCI-H2347; first compound 4 µM,0.64
same,relative viability,NCI-H647; first compound 0.04 µM,0.4
same,relative viability,NCI-H647; first compound 0.1265 µM,0.375
same,relative viability,NCI-H647; first compound 0.4 µM,0.562
same,relative viability,NCI-H647; first compound 1.265 µM,0.36
same,relative viability,NCI-H647; first compound 4 µM,0.375
same,relative viability,NCI-H2126; first compound 0.04 µM,0.514
same,relative viability,NCI-H2126; first compound 0.1265 µM,0.534
same,relative viability,NCI-H2126; first compound 0.4 µM,0.594
same,relative viability,NCI-H2126; first compound 1.265 µM,0.565
same,relative viability,NCI-H2126; first compound 4 µM,0.634
same,relative viability,NCI-H1915; first compound 0.04 µM,0.251
same,relative viability,NCI-H1915; first compound 0.1265 µM,0.257
same,relative viability,NCI-H1915; first compound 0.4 µM,0.273
same,relative viability,NCI-H1915; first compound 1.265 µM,0.257
same,relative viability,NCI-H1915; first compound 4 µM,0.276
same,relative viability,201T; first compound 0.04 µM,0.832
same,relative viability,201T; first compound 0.1265 µM,0.85
same,relative viability,201T; first compound 0.4 µM,0.881
same,relative viability,201T; first compound 1.265 µM,0.867
same,relative viability,201T; first compound 4 µM,0.861
same,relative viability,ChaGo-K-1; first compound 0.04 µM,0.494
same,relative viability,ChaGo-K-1; first compound 0.1265 µM,0.52
same,relative viability,ChaGo-K-1; first compound 0.4 µM,0.533
same,relative viability,ChaGo-K-1; first compound 1.265 µM,0.522
same,relative viability,ChaGo-K-1; first compound 4 µM,0.527
same,relative viability,NCI-H322M; first compound 0.04 µM,0.769
same,relative viability,NCI-H322M; first compound 0.1265 µM,0.687
same,relative viability,NCI-H322M; first compound 0.4 µM,0.786
same,relative viability,NCI-H322M; first compound 4 µM,0.663
same,relative viability,RERF-LC-KJ; first compound 0.04 µM,0.737
same,relative viability,RERF-LC-KJ; first compound 0.1265 µM,0.739
same,relative viability,RERF-LC-KJ; first compound 0.4 µM,0.866
same,relative viability,RERF-LC-KJ; first compound 1.265 µM,0.599
same,relative viability,RERF-LC-KJ; first compound 4 µM,0.665
same,relative viability,EPLC-272H; first compound 0.04 µM,0.357
same,relative viability,EPLC-272H; first compound 0.1265 µM,0.342
same,relative viability,EPLC-272H; first compound 0.4 µM,0.35
same,relative viability,EPLC-272H; first compound 1.265 µM,0.356
same,relative viability,EPLC-272H; first compound 4 µM,0.378
same,relative viability,NCI-H1666; first compound 0.04 µM,0.649
same,relative viability,NCI-H1666; first compound 0.1265 µM,0.755
same,relative viability,NCI-H1666; first compound 0.4 µM,0.593
same,relative viability,NCI-H1666; first compound 1.265 µM,0.672
same,relative viability,NCI-H1666; first compound 4 µM,0.785
same,relative viability,PC-14; first compound 0.04 µM,0.231
same,relative viability,PC-14; first compound 0.1265 µM,0.213
same,relative viability,PC-14; first compound 0.4 µM,0.219
same,relative viability,PC-14; first compound 1.265 µM,0.174
same,relative viability,PC-14; first compound 4 µM,0.253
same,relative viability,LCLC-97TM1; first compound 0.04 µM,0.237
same,relative viability,LCLC-97TM1; first compound 0.1265 µM,0.19
same,relative viability,LCLC-97TM1; first compound 0.4 µM,0.25
same,relative viability,LCLC-97TM1; first compound 1.265 µM,0.224
same,relative viability,LCLC-97TM1; first compound 4 µM,0.232
same,relative viability,HCC-827; first compound 0.04 µM,0.28
same,relative viability,HCC-827; first compound 0.1265 µM,0.308
same,relative viability,HCC-827; first compound 1.265 µM,0.266
same,relative viability,HCC-827; first compound 4 µM,0.343
same,relative viability,NCI-H23; first compound 0.04 µM,0.355
same,relative viability,NCI-H23; first compound 0.1265 µM,0.324
same,relative viability,NCI-H23; first compound 0.4 µM,0.314
same,relative viability,NCI-H23; first compound 1.265 µM,0.291
same,relative viability,NCI-H23; first compound 4 µM,0.348
same,relative viability,HCC-78; first compound 0.04 µM,0.744
same,relative viability,HCC-78; first compound 0.1265 µM,0.723
same,relative viability,HCC-78; first compound 0.4 µM,0.773
same,relative viability,HCC-78; first compound 1.265 µM,0.719
same,relative viability,HCC-78; first compound 4 µM,0.684
same,relative viability,COR-L 105; first compound 0.04 µM,0.722
same,relative viability,COR-L 105; first compound 0.1265 µM,0.706
same,relative viability,COR-L 105; first compound 0.4 µM,0.796
same,relative viability,COR-L 105; first compound 1.265 µM,0.681
same,relative viability,COR-L 105; first compound 4 µM,0.714
same,relative viability,NCI-H520; first compound 0.04 µM,0.504
same,relative viability,NCI-H520; first compound 0.1265 µM,0.446
same,relative viability,NCI-H520; first compound 0.4 µM,0.581
same,relative viability,NCI-H520; first compound 1.265 µM,0.456
same,relative viability,NCI-H520; first compound 4 µM,0.529
same,relative viability,NCI-H522; first compound 0.04 µM,0.711
same,relative viability,NCI-H522; first compound 0.1265 µM,0.685
same,relative viability,NCI-H522; first compound 0.4 µM,0.698
same,relative viability,NCI-H522; first compound 1.265 µM,0.696
same,relative viability,NCI-H522; first compound 4 µM,0.596
same,relative viability,NCI-H2405; first compound 0.04 µM,0.725
same,relative viability,NCI-H2405; first compound 0.1265 µM,0.744
same,relative viability,NCI-H2405; first compound 0.4 µM,0.866
same,relative viability,NCI-H2405; first compound 4 µM,0.732
same,relative viability,NCI-H2087; first compound 0.04 µM,0.286
same,relative viability,NCI-H2087; first compound 0.1265 µM,0.292
same,relative viability,NCI-H2087; first compound 0.4 µM,0.273
same,relative viability,NCI-H2087; first compound 1.265 µM,0.298
same,relative viability,NCI-H2087; first compound 4 µM,0.275
same,relative viability,LC-2-ad; first compound 0.04 µM,0.803
same,relative viability,LC-2-ad; first compound 0.1265 µM,0.753
same,relative viability,LC-2-ad; first compound 0.4 µM,0.768
same,relative viability,LC-2-ad; first compound 1.265 µM,0.776
same,relative viability,LC-2-ad; first compound 4 µM,0.861
same,relative viability,H3255; first compound 0.04 µM,0.526
same,relative viability,H3255; first compound 0.1265 µM,0.616
same,relative viability,H3255; first compound 0.4 µM,0.515
same,relative viability,H3255; first compound 1.265 µM,0.613
same,relative viability,H3255; first compound 4 µM,0.551
same,relative viability,NCI-H661; first compound 0.04 µM,0.584
same,relative viability,NCI-H661; first compound 0.1265 µM,0.512
same,relative viability,NCI-H661; first compound 0.4 µM,0.544
same,relative viability,NCI-H661; first compound 1.265 µM,0.597
same,relative viability,NCI-H661; first compound 4 µM,0.524
same,relative viability,NCI-H650; first compound 0.04 µM,0.292
same,relative viability,NCI-H650; first compound 0.1265 µM,0.337
same,relative viability,NCI-H650; first compound 0.4 µM,0.306
same,relative viability,NCI-H650; first compound 1.265 µM,0.327
same,relative viability,NCI-H650; first compound 4 µM,0.334

# Reference: the supplement of paper PMC10307832
